The values that follow come from patent US12559720B2, “Mobilization and collection of peripheral blood hematopoietic stem cells and lymphocytes from deceased donors” (The Regents of the University of California, priority 2018, dated 2026).

The test system of one series is PB HSC's / CD34+ cells. Conditions: cited from earlier work.
Series [1] has as its system CD34+ cells mobilized from bone marrow into peripheral blood. In words: First working embodiment: single-dose plerixafor mobilization in a deceased donor, apheresis, then CD34+ isolation.

Take `c1cc(CN2CCCNCCNCCCNCC2)ccc1CN1CCCNCCNCCCNCC1` [plerixafor, 1-{[4-(1,4,8,11-tetrazacyclotetradec-1-ylmethyl)phenyl]methyl}-1,4,8,11 tetrazacyclotetradecane]: in the series on PB HSC's / CD34+ cells (after administration), the “peak onset of action” value was 6 to 10 h. In addition, in the series with PB HSC's / CD34+ cells (single agent, standard dose 0.24 mg/kg, subcutaneously or intravenously), the “fraction of healthy donors who fail to produce desired numbers of CD34+ cells/kg” value is “⅓”. Also, the “tolerability / organ toxicity” value in the series with PB HSC's / CD34+ cells (single subcutaneous dose) was “well tolerated with no major organ toxicity”. Besides, in series [1] (Leukopak Product), the “% CD34+” value came to 0.87%, the “% viability” value turned out to be 99.5%, the TNC came out at 1.49E+10 and the “Total CD34+ (= % CD34+/100 x TNC)” value was determined as 1.29E+08. In series [1] (Leukopak Product, single sc dose plerixafor, apheresis started 8 hours after dose, 24 liters processed), this compound gave a TNC/mL of 3.23E+07. In series [1] (Positive (CD34) fraction), the “% CD34+” value is 95%, the “% viability” value is 95%, the TNC amounted to 1.22E+08 and the TNC/mL came out at 2.60E+06. For the same compound, the “Total CD34+ (= % CD34+/100 x TNC)” value in series [1] (Positive (CD34) fraction) is given as 1.16E+08. Also, the “whole body CT scans, routine hematology and serum chemistry panels before and after the procedure” value in series [1] (deceased donor, single dose plerixafor) was “remained stable”. The “tolerability of the procedure (vital signs, oxygenation, urine output)” value in series [1] (deceased donor, single sc dose plerixafor (0.24 kg/mg), 8 hours apheresis) is “tolerated the procedure well”. For the same compound, the “viable CD34+ cells isolated” value in series [1] (first working embodiment) was “more than 1.0×10^8 cells”. For the same compound, the “purity of isolated CD34+ cells” value in series [1] (first working embodiment, after isolation) is given as 90-95%.
